Patent US6482771B2, “Synergistic herbicidal methods and compositions” (BASF Aktiengesellschaft, priority 2000, dated 2002)

What was measured:
Hordeum leporinum = assay: Field plot evaluation of biomass reduction and seedhead suppression in Hordeum leporinum (wild barley), post-emergence in an imidazolinone-tolerant crop; format: in vivo; conditions: 28 g/ha; for Seed Head Red. Observed: seedhead count vs untreated plot; for Bio. Red. Observed: visual rating vs untreated plots, average of 4 replicates
Protocol: (§1) In the following examples, synergism is determined by the Colby (Colby, S. R., Weeds, 1967(15), p. 20-22) method, i.e. the expected (or predicted) response of the combination is calculated by taking the product of the observed response for each individual component of the combination when applied alone divided by 100 and subtracting this value from the sum of the observed response for each component when applied alone. Synergism of the combination is then determined by comparing the observed response of the combination to the expected (or predicted) response as calculated from the observed responses of each individual component alone. If the observed response of the combination is greater than the expected (or predicted) response then the combination is said to be synergistic.
(§2) All trials employ standard accepted weed science procedures. Applications are made to 2×10M plots with a propane gas-powered small plot boomspray applicator. Test design is a modified randomized complete block design with four replications. Applications are made at 2-6 weeks after the imidazolinone-tolerant crop is sown.
In this evaluation biomass reduction is determined by visually rating the numbers and bulk of Hordeum leporinum in the treatment plots as compared to the numbers and bulk in the untreated plots. Seedhead suppression is measured by counting the seedheads of Hordeum leporinum in each of the treated plots and comparing to the number of seedheads in the untreated plot.
The test solutions are prepared by tank-mixing commercial formulations. All treatments also contain 0.5% v/v of an ethoxylated vegetable oil.
The treated plots are examined at intervals during the growing season and rated for percent biomass reduction and percent seedhead suppression. The data shown are an average of the replicates for that treatment. The Colby method of analysis is used to determine the resultant biological effect of the combination treatment as compared to the biological effect of each component when applied alone.

Bromus diandrus = assay: Field plot evaluation of density reduction in Bromus diandrus (great bromegrass); format: in vivo; conditions: 28 g/ha, weed count vs untreated plot
Protocol: as §1
as §2, with “sown. […]” for “sown.”
Using essentially the same procedure and test solutions described in Example 1, the following evaluation is carried out. In this evaluation, density reduction is measured by counting the Bromus diandrus weeds in the treated plots and comparing the count to that of the untreated plot. […]

In the case of `COCc1cnc(C2=NC(C)(C(C)C)C(=O)N2)c(C(=O)O)c1` (stereo not drawn) [imazamox, 2-(4-isopropyl-4-methyl-5-oxo-2-imidazolin-2-yl)-5-(methoxymethyl)-nicotinic acid], the “Seed Head Red. Observed” value (Hordeum leporinum) is reported as 76.33%, the “Bio. Red. Observed” value (Hordeum leporinum) is reported as 80% and the “Density Red. Obs.” value (Bromus diandrus) is reported as 98.96%.

For `Cc1cnc(C2=NC(C)(C(C)C)C(=O)N2)c(C(=O)O)c1` (stereo not drawn) [imazapic, 2-(4-isopropyl-4-methyl-5-oxo-2-imidazolin-2-yl)-5-methylnicotinic acid], the “Seed Head Red. Observed” value (Hordeum leporinum) was 5.55%, the “Bio. Red. Observed” value (Hordeum leporinum) was 30% and the “Density Red. Obs.” value (Bromus diandrus) was −17.29%.
